Measured values published in US20120077814A1, “SULFONAMIDE, SULFAMATE, AND SULFAMOTHIOATE DERIVATIVES” (priority 2010, published 2012).

What was measured:
[1] = biological target: T1, recombinant human NAE enzyme (NEDD8 Activating Enzyme) (Homo sapiens, UniProt Q8TBC4); assay: E1-activating enzyme assay, time-resolved fluorescence energy transfer (NAE); assay type: biochemical; details: 0.5 nM recombinant human NAE, 100 μM ATP; read-out: Activity (range of inhibitory activity on NAE, IC50)
T1 sequence (Q8TBC4 1-463): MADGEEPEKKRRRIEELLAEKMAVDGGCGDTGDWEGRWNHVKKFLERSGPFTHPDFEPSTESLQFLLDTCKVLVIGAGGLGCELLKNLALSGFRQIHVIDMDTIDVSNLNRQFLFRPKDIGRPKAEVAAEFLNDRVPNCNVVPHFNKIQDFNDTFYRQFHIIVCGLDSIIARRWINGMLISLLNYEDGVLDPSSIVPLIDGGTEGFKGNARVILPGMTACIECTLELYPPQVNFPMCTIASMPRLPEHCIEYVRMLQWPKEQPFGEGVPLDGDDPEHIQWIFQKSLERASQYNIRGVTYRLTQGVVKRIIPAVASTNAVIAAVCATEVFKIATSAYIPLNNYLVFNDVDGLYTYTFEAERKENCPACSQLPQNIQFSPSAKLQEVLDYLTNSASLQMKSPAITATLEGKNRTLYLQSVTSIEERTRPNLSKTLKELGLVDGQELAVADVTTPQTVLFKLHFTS
T1 sequence (Q13564 1-534 partner): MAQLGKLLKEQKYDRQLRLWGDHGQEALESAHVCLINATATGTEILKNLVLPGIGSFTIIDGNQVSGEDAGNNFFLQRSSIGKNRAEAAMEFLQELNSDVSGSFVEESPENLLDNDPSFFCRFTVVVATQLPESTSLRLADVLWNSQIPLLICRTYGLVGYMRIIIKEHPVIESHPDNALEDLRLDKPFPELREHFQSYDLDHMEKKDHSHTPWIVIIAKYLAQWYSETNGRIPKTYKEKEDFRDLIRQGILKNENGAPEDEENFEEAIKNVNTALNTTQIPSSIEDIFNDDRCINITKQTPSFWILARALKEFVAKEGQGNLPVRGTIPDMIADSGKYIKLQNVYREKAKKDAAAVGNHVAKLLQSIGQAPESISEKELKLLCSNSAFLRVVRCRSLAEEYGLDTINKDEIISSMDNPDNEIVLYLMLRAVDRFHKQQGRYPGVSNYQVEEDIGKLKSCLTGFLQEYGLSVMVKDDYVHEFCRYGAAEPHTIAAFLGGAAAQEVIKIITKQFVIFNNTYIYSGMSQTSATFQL
Procedure: A time-resolved fluorescence energy transfer assay format is used to measure the in vitro activity of NEDD8 Activating Enzyme (NAE). The enzymatic reaction is performed in a total volume of 50 μL, containing 50 mM HEPES, pH 7.5, 0.05% BSA, 5 mM MgCl2, 100 μM ATP, 10 nM Ubc12-GST, 75 nM NEDD8-Flag and 0.5 nM recombinant human NAE enzyme. The reaction mixture is incubated with and without compound inhibitor at 24° C. for 30 min in a 96 half-well plate. The reaction is then terminated with 25 μL of stop/detection buffer (0.1 M HEPES, pH 7.5, 0.05% Tween20, 20 mM EDTA, 410 mM KF, 81.8 ng/mL Europium-Cryptate-labelled monoclonal Flag-M2-specific antibody (CisBio International) and 8.125 μg/mL PHYCOLINK allophycocyanin (XL-APC)-labelled GST-specific antibody (Prozyme)). After incubation for 2 hours at 24° C., the plate is read on a Tecan Infinite M1000 instrument using a time-resolved fluorescence method. A similar assay protocol is used to measure other E1 enzymes. For the Sumo Activating Enzyme (SAE) assay everything is conducted as described for NAE except that Ubc12-GST and NEDD8-Flag are replaced with 10 nM Ubc9-GST and 125 nM Sumo-Flag respectively, and recombinant human SAE (0.6 nM) replaced NAE. The Ubiquitin Activating Enzyme (UAE) assay is performed as described for NAE except Ubc12-GST, NEDD8-Flag, and NAE are replaced with 5 nM Ubc2-GST, 125 nM UBB-Flag, and 1.5 nM UAE respectively.
Compounds of the disclosure are inhibitors of NAE. Several exemplary compounds useful in the methods of the disclosure are listed below.

[2] = test system: HCT-116 cell proliferation; assay: Cell proliferation assay (HCT-116); assay type: cell-based; details: Homo sapiens; HCT-116 cells; read-out: Activity (range of inhibitory activity against HCT-116 cell proliferation, IC50)
Procedure: A panel of cancer cell lines is obtained from ATCC (Rockville, Md.). Cell cultures are maintained in Hyclone DMEM/F12 medium (Logan, Utah) supplemented with 10% fetal bovine serum and 15 mM HEPES buffer, final pH 7.2, at 37° C. with a 5% CO2 atmosphere. Cultures are maintained at sub-confluent densities.
For proliferation assays, cells are seeded into 96 well plates at 1,000-5,000 cells per well, depending on the cell line, and are incubated overnight. The following day, test compound, DMSO solution (negative control), or Actinomycin D (positive control) is added to the appropriate wells as 10× concentrated stocks prepared in phosphate buffered saline. The cell plates are then incubated for an additional 2-6 days, depending on the cell line, to allow proliferation to occur. To measure cell growth in adherent cultures, DNA amounts are measured in each well using the CyQuant DNA determination kit (Invitrogen, Carlsbad, Calif.) following the recommended protocol. Measurement of cell growth in suspension cultures is done by use of Celltiter Reagent (Promega, Madison, Wis.) at the end of treatment, following the recommended protocol. The percentage of cell growth is determined by comparing the cell growth in the presence of test compounds to the cells treated with DMSO vehicle (control, 100% growth) and cells treated with Actinomycin D ([…], 0% growth). […]

SMILES	IC50 [1]	IC50 [2]
NS(=O)(=O)OC[C@H]1O[C@@H](c2csc3c(N[C@H]4CCc5ccccc54)ncnc23)C[C@@H]1O [Compound 10, ((2R,3S,5R)-5-(4-((S)-2,3-dihydro-1H-inden-1-ylamino)thieno[3,2-d]pyrimidin-7-yl)-3-hydroxytetrahydrofuran-2-yl)methyl sulfamate]	0.5 to 5 µM	0.5 to 5 µM
NS(=O)(=O)OC[C@H]1O[C@@H](c2csc3c(NCc4ccccc4)ncnc23)[C@H](O)[C@@H]1O [Compound 25, (5-(4-(benzylamino)thieno[3,2-d]pyrimidin-7-yl)-3,4-dihydroxytetrahydrofuran-2-yl)methyl sulfamate]	–	0.5 to 5 µM
NS(=O)(=O)OC[C@H]1O[C@@H](c2csc3c(NCC4CC4)ncnc23)[C@H](O)[C@@H]1O [Compound 26, (5-(4-(cyclopropylmethylamino)thieno[3,2-d]pyrimidin-7-yl)-3,4-dihydroxytetrahydrofuran-2-yl)methyl sulfamate]	–	5 to 50 µM
Nc1ncnc2c([C@@H]3O[C@H](COS(N)(=O)=O)[C@@H](O)[C@H]3O)coc12 [Compound 11, ((2R,3S,4R,5S)-5-(4-aminofuro[3,2-d]pyrimidin-7-yl)-3,4-dihydroxytetrahydrofuran-2-yl)methyl sulfamate]	0.5 to 5 µM	< 0.5 µM
NS(=O)(=O)OC[C@H]1O[C@@H](c2coc3c(NCc4ccc(Cl)c(C(F)(F)F)c4)ncnc23)[C@H](O)[C@@H]1O [Compound 35, (5-(4-(4-chloro-3-(trifluoromethyl)benzylamino)furo[3,2-d]pyrimidin-7-yl)-3,4-dihydroxytetrahydrofuran-2-yl)methyl sulfamate]	0.5 to 5 µM	–
NS(=O)(=O)OC[C@H]1O[C@@H](c2csc3c(NCc4ccccc4Cl)ncnc23)[C@H](O)[C@@H]1O [Compound 30, (5-(4-(2-chlorobenzylamino)thieno[3,2-d]pyrimidin-7-yl)-3,4-dihydroxytetrahydrofuran-2-yl)methyl sulfamate]	0.5 to 5 µM	–
Nc1ncnc2c([C@@H]3O[C@H](COS(N)(=O)=O)[C@@H](O)[C@H]3O)[nH]nc12 [Compound 3, [(2R,3S,4R,5S)-5-(7-amino-1H-pyrazolo[4,3-d]pyrimidin-3-yl)-3,4-dihydroxy-tetrahydrofuran-2-yl]methyl sulfamate]	0.5 to 5 µM	0.5 to 5 µM
Nc1ncnc2c([C@@H]3O[C@H](COS(N)(=O)=O)[C@@H](O)[C@H]3O)cnn12 [Compound 13, ((2R,3S,4R,5S)-5-(4-aminopyrazolo[1,5-a][1,3,5]triazin-8-yl)-3,4-dihydroxytetrahydrofuran-2-yl)methyl sulfamate]	–	5 to 50 µM
NS(=O)(=O)OC[C@H]1C[C@H](c2ccc3c(N[C@H]4CCc5ccccc54)ncnn23)C[C@@H]1OS(N)(=O)=O [Compound 19, [2-[(aminosulfonyl)oxy]-4-{4-[2,3-dihydro-1H-inden-1-ylamino]pyrrolo[2,1-f][1,2,4]triazin-7-yl}cyclopentyl]methyl sulfamate]	5 to 50 µM	5 to 50 µM
NS(=O)(=O)OC[C@H]1O[C@@H](c2csc3c(NCc4ccc(Cl)cc4)ncnc23)[C@H](O)[C@@H]1O [Compound 6, ((2R,3S,4R,5S)-5-(4-(4-chlorobenzylamino)thieno[3,2-d]pyrimidin-7-yl)-3,4-dihydroxytetrahydrofuran-2-yl)methyl sulfamate]	< 0.5 µM	0.5 to 5 µM
NS(=O)(=O)OC[C@H]1O[C@@H](c2csc3c(NCc4cccc(Cl)c4)ncnc23)[C@H](O)[C@@H]1O [Compound 37, (5-(4-(3-chlorobenzylamino)thieno[3,2-d]pyrimidin-7-yl)-3,4-dihydroxytetrahydrofuran-2-yl)methyl sulfamate]	0.5 to 5 µM	–
Nc1ncnc2c([C@@H]3O[C@H](COS(N)(=O)=O)[C@@H](O)[C@H]3O)csc12 [Compound 4, [(2R,3S,4R,5S)-5-(4-aminothieno[3,2-d]pyrimidin-7-yl)-3,4-dihydroxy-tetrahydrofuran-2-yl]methyl sulfamate]	< 0.5 µM	< 0.5 µM
NS(=O)(=O)OC[C@H]1O[C@@H](c2coc3c(NCc4ccc(Cl)cc4Cl)ncnc23)[C@H](O)[C@@H]1O [Compound 34, (5-(4-(2,4-dichlorobenzylamino)furo[3,2-d]pyrimidin-7-yl)-3,4-dihydroxytetrahydrofuran-2-yl)methyl sulfamate]	–	5 to 50 µM
NS(=O)(=O)OC[C@H]1O[C@@H](c2ccc3c(N[C@H]4CCc5ccccc54)ncnn23)CC1=O [Compound 1, [(2R,5R)-5-[4-[[(1S)-indan-1-yl]amino]pyrrolo[2,1-f][1,2,4]triazin-7-yl]-3-oxo-tetrahydrofuran-2-yl]methyl sulfamate]	5 to 50 µM	5 to 50 µM
COCCNc1ncnc2c([C@@H]3O[C@H](COS(N)(=O)=O)[C@@H](O)[C@H]3O)csc12 [Compound 28, (3,4-dihydroxy-5-(4-(2-methoxyethylamino)thieno[3,2-d]pyrimidin-7-yl)tetrahydrofuran-2-yl)methyl sulfamate]	–	5 to 50 µM
